SMILES strings stand for the structures.

The test system of the assay is mESC Bmi1-luciferase reporter, firefly/renilla ratio, 24 h. As to the kind of experiment: Bmi1-luciferase reporter activators in mESC, dose response, esBAF inhibitor project, mouse embryonic stem cells, cherry-pick (AID 651717;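 note: luciferase knocked into Bmi1 locus with EF-1a renilla as cell number control; rising ratio signals esBAF inhibition which derepresses Bmi1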). (In general: A reporter such as luciferase makes a cellular process visible.)
With `Cc1cc(C)cc(N(CC(=O)Nc2ccc(-c3nc4ccc(C)cc4s3)cc2)S(C)(=O)=O)c1`, the AC40 is 4.11 µM.

As to `CSCc1nc2sc(C(=O)Nc3nc(C)cs3)c(C)c2c(=O)[nH]1`, the AC40 is 4.19 µM.

As to `CC1(C)CNC(=O)c2sc(NC(=O)c3ccccc3)nc2C1`, the AC40 was 4.76 µM.

For `O=C(Nc1ccc2c(c1)COC2=O)c1ccc(Cl)c(Cl)c1`, the AC40 was 2.46 µM.

Regarding `CC(=O)NCCNc1nc2cc(-c3ccc(C)cc3)sc2c(=O)n1C`, the AC40 was 14.3 µM.

Take `CCCn1cnc2c(SCCc3ccccc3)nc(N)nc21`: the AC40 is 7.67 µM.

`O=C(NC1CCCCC1)c1n[nH]c2c1CC(c1ccccc1)CC2` (stereo unspecified): the AC40 was 0.996 µM.

For `COc1ccccc1C(=O)Nc1sc2c(c1C#N)CCC2`, the AC40 is 2.15 µM.

With `CCC(=O)c1ccc(N2CCC(C)CC2)c(F)c1`, the AC40 is 2.04 µM.

As for `COc1c(C(=O)NNC(=O)c2ccccc2)csc1Br`, the AC40 was 0.646 µM.

For `COC(=O)c1sc(Nc2ccccc2)nc1C`, the AC40 was 4.18 µM.

With `O=c1[nH]cnc2nc(-c3ccc(N(CCCl)CCCl)cc3)[nH]c12`, the AC40 was 0.965 µM.

With `CCC(C)NC(=O)c1cc(CC(C)C)on1` (stereo unspecified), the AC40 was 6.83 µM.

Take `Cc1nc(-c2ccccc2)nc2[nH]ccc(=O)c12`: the AC40 was 4.23 µM.

Take `Cc1ccc(C(=O)CNc2ccccc2)cc1`: the AC40 is 16.6 µM.

Turning to `CC(=O)Nc1ccc2c(c1Br)Cc1ccccc1-2`, the AC40 is 2.53 µM.

In the case of `Cn1c(/C=C/c2ccc(Br)cc2)nc2ccccc2c1=O`, the AC40 was 4.88 µM.

Turning to `O=C(NCCc1ccccc1)c1nccc2ccccc12`, the AC40 was 6.84 µM.

As to `O=C(Nc1ccccc1)c1cc(C2CCCCN2S(=O)(=O)c2cccs2)on1` (stereo unspecified), the AC40 was 9.04 µM.

In the case of `COc1ccc2c(CN(C)Cc3ccccc3)cc(=O)oc2c1`, the AC40 was 0.841 µM.

As for `Oc1cccc(C=NNc2ccccn2)c1`, the AC40 is 5.37 µM.

As for `CCc1ccc2cc3c(cc2n1)C(=O)c1ccccc1-3`, the AC40 is 2.32 µM.

`O=C(NCc1ccccc1)c1cc(-c2cccc(O)c2)on1`: the AC40 is 12.6 µM.

For `O=C(O)c1cncc(C#CCC2CCCCC2)c1`, the AC40 was 15.6 µM.

For `O=C(Cc1ccccc1F)Nc1nc(-c2ccc(F)c(F)c2)cs1`, the AC40 was 9.65 µM.

As to `Cc1cccc(N/N=C/c2ccc(C)s2)c1`, the AC40 was 2.91 µM.

On to `CC(C)C1CCN(C(=O)C2CCC(=O)N(C3CCCCCC3)C2)CC1` (stereo unspecified), for which the AC40 was 9.83 µM.

With `Cn1c(CSc2ccccc2)c(C#N)c2ccccc21`, the AC40 was 6.77 µM.

For the compound `Clc1ccc(-c2cnnc(-c3ccccn3)n2)cc1`, the AC40 is 1.79 µM.

As to `Cc1cccc(NC(=O)c2c(O)c3ccccc3[nH]c2=O)c1`, the AC40 is 0.371 µM.

`COc1ccc(CNC(=O)Nc2ccc(C)cc2)cc1`: the AC40 was 8.63 µM.

As to `Cc1cc(-c2nnco2)c(C)n1-c1ccccc1`, the AC40 was 6.01 µM.

With `COc1cccc(NC(=O)c2ccnc(N3CCC(C(=O)NCc4ccccc4OC)CC3)c2)c1`, the AC40 is 8.36 µM.

As for `O=C(NC1CCCCCCC1)c1c(O)c2ccccc2[nH]c1=O`, the AC40 is 2.19 µM.

Consider `Cn1c(=NC(=O)C2CC2)sc2cc(F)cc(F)c21`, for which the AC40 was 16.6 µM.

On to `N/C(=N\OC(=O)C1CCCCC1)c1ccc(Cl)cc1`, for which the AC40 was 6.24 µM.

Take `NC(=O)C1CCN(c2nc(-c3cccc(N)c3)cs2)CC1`: the AC40 is 1.35 µM.

As for `CNc1cncc(-c2cccc(OC)c2F)n1`, the AC40 was 1.24 µM.

With `Cc1ccc(CN2CC(C(=O)Nc3cc(C)ccn3)CC2=O)cc1` (stereo unspecified), the AC40 is 1.48 µM.

In the case of `Cc1ccc(Nc2nc(Cl)nc(NC(C)(C)C)n2)cc1`, the AC40 was 1.47 µM.

In the case of `CCCn1cnc2cc(NCc3ccccc3O)ccc21`, the AC40 was 17.2 µM.

Turning to `Cc1cccc(N2C(=O)CC(N(O)c3ccccc3)C2=O)c1` (stereo unspecified), the AC40 is 28.4 µM.

As to `COc1ccccc1NC(=O)Nc1nc(CC(=O)Nc2ccc(N(C)C)cc2)cs1`, the AC40 was 8.78 µM.

As to `CS(=O)(=O)N1CCN(c2nc3ccccc3s2)CC1`, the AC40 is 1.24 µM.

Take `CNc1cnc(-c2ccc(F)c(F)c2F)cn1`: the AC40 was 1.54 µM.

Consider `Cc1ccc(NC(=O)NC(=O)N(c2ccccc2)S(C)(=O)=O)cc1`, for which the AC40 was 7.14 µM.

For the compound `Cc1ccc(OCc2cc(C(=O)NCCc3cccnc3)no2)cc1C`, the AC40 is 11.9 µM.

Turning to `O=C(CCc1nnc(CCc2c[nH]c3ccccc23)o1)NC1CCC1`, the AC40 was 4.41 µM.

Consider `Cc1ccc2nc(-c3cccc(S(=O)(=O)N4CCCC4)c3)cn2c1`, for which the AC40 was 23.2 µM.

Take `CN(Cc1nccn1C)C(=O)c1ccc2nc(Cc3ccccc3F)oc2c1`: the AC40 is 5.37 µM.

With `COc1ccc2nc3sc(C(=O)NCCN4CCc5ccccc5C4)cc3cc2c1`, the AC40 was 5.77 µM.

On to `COc1ccc(C)c2sc(=NC(=O)c3cccc(N4C(=O)CCC4=O)c3)n(C)c12`, for which the AC40 was 1.81 µM.

As to `O=C1CCCc2c1sc1nc3n(c(=O)c21)CCCCC3`, the AC40 was 4.12 µM.

Regarding `C=CCn1c(NCc2ccc(OC)cc2O)nc2ccccc21`, the AC40 is 5.58 µM.

In the case of `O=C(Nc1ccc(Oc2cccnc2)cc1)c1ccccc1F`, the AC40 is 12.7 µM.

In the case of `O=C(CC(NC(=O)OCc1ccccc1)c1nn[nH]n1)OCc1ccccc1` (stereo unspecified), the AC40 is 2.6 µM.

Take `COc1ccccc1CNC(=O)C[C@@H]1CC[C@@H]2[C@H](COC[C@H](O)CN2C(=O)Nc2ccc(Cl)cc2)O1`: the AC40 was 1.36 µM.

As to `Cc1ccccc1-c1nnc(-c2cccc3ccccc23)o1`, the AC40 is 0.85 µM.

`CC(C)c1ccc(NC(=O)c2ccc3snnc3c2)cc1`: the AC40 was 3.23 µM.

With `O=C(Nc1cccc(O)c1)c1ccc(Br)c(S(=O)(=O)N2CCCCC2)c1`, the AC40 is 17.6 µM.

Regarding `Cc1ccc(NC(=O)C2CC3CCC2C3)c(Br)c1` (stereo unspecified), the AC40 was 1.22 µM.

In the case of `O=C(Nc1nc2ccc(Cl)cc2s1)c1cccc(N2C(=O)CCC2=O)c1`, the AC40 was 3.25 µM.

Take `Cc1nc(-c2ccc(Cl)cc2)sc1C1(C)CC(c2cccnc2)=NO1` (stereo unspecified): the AC40 is 5.57 µM.

As to `CCCCSc1nnc(-c2c[nH]c3ccccc23)n1C`, the AC40 was 6.69 µM.

On to `Nc1nc(-c2cccc(F)c2)cs1`, for which the AC40 was 6.13 µM.

`COc1ccc(C2=NN(C(=O)c3ccccc3C(=O)O)C(c3ccccc3O)C2)cc1` (stereo unspecified): the AC40 is 6.57 µM.

On to `Cc1ccc(NC(=O)O/N=C/c2ccc(N(C)C)cc2)cc1`, for which the AC40 was 16.6 µM.

Turning to `CC1CCN(C(=O)CCc2nnc(-c3ccccc3)o2)CC1`, the AC40 was 4.2 µM.

As for `Cn1c2ccccc2c(=O)c2cc(C#Cc3ccsc3)ccc21`, the AC40 is 1.08 µM.

In the case of `COc1ccc(-c2noc(CCCC(=O)N3CCN(c4cc(C)ccc4C)CC3)n2)cc1`, the AC40 was 3.53 µM.

`Brc1ccccc1-c1nnc(-c2cccnc2)o1`: the AC40 is 6.08 µM.

`CO[C@@H]1CN(C)C(=O)c2ccc(NC(=O)Nc3ccc4c(c3)OCO4)cc2OC[C@H](C)NC[C@H]1C`: the AC40 is 6.56 µM.

On to `CCOc1ccc(N=C(/C(C(=O)C(=O)N2CCOCC2)=C(\O)c2ccccc2)c2ccccc2)cc1`, for which the AC40 is 11.2 µM.

For `COc1ccccc1CNC(=O)C[C@H]1CC[C@H]2[C@@H](COC[C@@H](O)CN2C(=O)Nc2ccc(Cl)cc2)O1`, the AC40 is 1.05 µM.

Turning to `COc1ccc(NC(=O)c2cc(F)cc(F)c2)cc1Cl`, the AC40 was 4.77 µM.

In the case of `O=C(NCCc1ccccc1)c1ccc(Cl)c(S(=O)(=O)N2CCCC2)c1`, the AC40 is 8.04 µM.

Consider `COc1ccc2c(c1OC)C(=O)N1c3ccccc3SC21` (stereo unspecified), for which the AC40 was 0.438 µM.

Regarding `COc1cc2ccccc2cc1C(=O)NC1CCCC1`, the AC40 is 8.82 µM.

As for `Cc1ccc(C)c(OCc2cc(C(=O)N3CC[C@@H]4CCCC[C@H]4C3)no2)c1`, the AC40 is 7.9 µM.

As to `Oc1ccc(-c2nccc(-c3ccccn3)n2)cc1`, the AC40 is 3.66 µM.

In the case of `Cn1c2nc3ccccc3c-2nc2ccccc21`, the AC40 is 4.33 µM.

Regarding `CCc1c(C)sc(NC(=O)c2cccs2)c1C(N)=O`, the AC40 is 2.66 µM.

For `Cc1nc2c(sc3nc4c(cc32)COC(C)(C)C4)c(=O)n1Cc1ccccc1`, the AC40 was 1.18 µM.

Turning to `Cc1csc(NC(=O)Cc2ccc(F)cc2)n1`, the AC40 is 7.58 µM.

As to `CCc1sc(C(=O)Nc2ccc3nc(C)sc3c2)cc1C`, the AC40 is 4.74 µM.

Regarding `CCC(=O)Nc1cccc(-c2nc3ccccc3o2)c1`, the AC40 was 15.7 µM.

In the case of `CCCC(=O)Nc1ccc2c(c1)C(=O)N(C)C[C@H](OC)[C@@H](C)CN(Cc1ccc(-c3ccccn3)cc1)[C@@H](C)CO2`, the AC40 was 8.13 µM.

Turning to `COc1ccc(C(=O)CNc2cccc(F)c2)cc1`, the AC40 is 16.4 µM.

In the case of `CCOC(=O)C1=C(CSc2nc(-c3ccccc3)ccc2C#N)OC(N)=C(C#N)C1c1cccnc1` (stereo unspecified), the AC40 is 2.89 µM.

Take `COc1ccc(OCc2cc(C(=O)NC(C)Cc3cnccn3)no2)c(Cl)c1` (stereo unspecified): the AC40 is 5.42 µM.

In the case of `Nc1cc2c(cc1Cl)-c1ccc(Cl)cc1C2`, the AC40 is 11.3 µM.

For `CC(=O)Nc1ccc2nc(SCC(=O)Nc3ccc(N4CCOCC4)c(Cl)c3)sc2c1`, the AC40 was 3.57 µM.

Consider `O=C(Nc1ccccn1)c1ccc(Cl)c(S(=O)(=O)N2CCCC2)c1`, for which the AC40 was 14.6 µM.

As for `CSc1ccccc1NC(=O)c1ccc(N2CCCC2=O)cc1`, the AC40 is 2.01 µM.

`S=c1[nH]nc(SCc2ccccc2)c2[nH]cnc12`: the AC40 was 5.52 µM.

`COc1ccc(-c2csc(C(C)(O)c3ccccc3)n2)cc1` (stereo unspecified): the AC40 was 14.9 µM.

Regarding `O=C(c1c(F)cccc1F)N1CCCC(c2nc(-c3cccs3)no2)C1` (stereo unspecified), the AC40 is 11.8 µM.

Take `O=C(NCCc1ccccc1)c1cccc(NC(=O)C2CCC2)c1`: the AC40 is 8.75 µM.

Regarding `CN(CC(=O)Nc1ccc(Cl)c(C(F)(F)F)c1)C(=O)CCCNC(=O)c1ccc(Cl)cc1`, the AC40 was 16.8 µM.

In the case of `Cc1cccc(Oc2coc3cc(O)ccc3c2=O)c1`, the AC40 is 15.7 µM.

As to `COc1cc2ccccc2cc1C(=O)Nc1ccncc1`, the AC40 is 5.2 µM.

Consider `c1ccc(-c2nnc3oc(-c4cccs4)nn23)cc1`, for which the AC40 is 5.88 µM.

Regarding `O=C(Nc1nc2c(s1)CCc1ccccc1-2)c1cccs1`, the AC40 is 0.9 µM.

With `COc1cccc(CN(C)C(=O)c2ccc(COc3ccc(Cl)cc3)cc2)c1OC`, the AC40 was 5.66 µM.

With `COc1ccc(CCC(=O)N2CCc3ccccc32)cc1`, the AC40 was 5.22 µM.

As to `FC(F)(F)c1ccccc1Cc1c(-c2cccc(Br)c2)nc2c3ccccc3ccn12`, the AC40 was 9.57 µM.

The values above are taken from PubChem BioAssay AID651717 (Broad Institute, 2012).
